Measured values: ChEMBL document CHEMBL5608177, “Antitumor activity and transcriptome sequencing (RNA-seq) analyses of hepatocellular carcinoma cells in response to exposure triterpene-nucleoside conjugates” (Eur J Med Chem, 2024)
Calls of active or inactive are those of the source. The rule behind the calls is not given here.

What was measured:
[1] = tested on: SMMC-7721; test: Induction of apoptosis in human SMMC-7721 cells assessed as late apoptotic cells at 15 uM incubated for 24 hrs by Annexin V-FITC and propidium iodide staining based flow cytometric analysis (reference value: 0.09 %); type: functional
[2] = tested on: SMMC-7721; test: Induction of apoptosis in human SMMC-7721 cells assessed as late apoptotic cells at 20 uM incubated for 24 hrs by Annexin V-FITC and propidium iodide staining based flow cytometric analysis (reference value: 0.14 %); type: functional
[3] = tested on: SMMC-7721; test: Induction of apoptosis in human SMMC-7721 cells assessed as early apoptotic cells at 15 uM incubated for 24 hrs in presence of Nec1 by Annexin V-FITC and propidium iodide staining based flow cytometric analysis (reference value: 0.07 %); type: functional
[4] = tested on: SMMC-7721; test: Induction of apoptosis in human SMMC-7721 cells assessed as viable cells at 15 uM incubated for 24 hrs by Annexin V-FITC and propidium iodide staining based flow cytometric analysis (reference value: 99.2 %); type: functional; settings: read-out: Activity
[5] = Toxicity in Zebrafish embryo assessed as reduction in survival rate at upto 100 uM incubated for 48 hrs by microscopic analysis; set-up: species or system Danio rerio; settings: in vivo
[6] = tested on: SMMC-7721; test: Induction of autophagy in human SMMC-7721 cells assessed as formation of autophagosome at 10 uM incubated for 24 hrs by TEM analysis; type: functional, cell-based
[7] = tested on: SMMC-7721; test: Induction of apoptosis in human SMMC-7721 cells assessed as necrotic cells at 15 uM incubated for 24 hrs in presence of Nec1 by Annexin V-FITC and propidium iodide staining based flow cytometric analysis (reference value: 0.65 %); type: functional
[8] = tested on: SMMC-7721; test: Induction of apoptosis in human SMMC-7721 cells assessed as necrotic cells at 20 uM incubated for 24 hrs by Annexin V-FITC and propidium iodide staining based flow cytometric analysis (reference value: 0.61 %); type: functional
[9] = tested on: KYSE-150 cell line; test: Antiproliferative activity against human KYSE-150 cell line assessed as inhibition of cell growth incubated for 48 hrs by CCK-8 reagent based spectrophotometric analysis; type: functional; settings: KYSE-150, 48 h
[10] = tested on: SMMC-7721; test: Induction of apoptosis in human SMMC-7721 cells assessed as early apoptotic cells at 15 uM incubated for 24 hrs in presence of zVAD by Annexin V-FITC and propidium iodide staining based flow cytometric analysis (reference value: 0.07 %); type: functional
[11] = tested on: SMMC-7721; test: Induction of autophagy in human SMMC-7721 cells assessed as appearance of sparse matrix at 10 uM incubated for 24 hrs by TEM analysis; type: functional, cell-based
[12] = tested on: SMMC-7721; test: Induction of apoptosis in human SMMC-7721 cells assessed as necrotic cells at 15 uM incubated for 24 hrs in presence of zVAD by Annexin V-FITC and propidium iodide staining based flow cytometric analysis (reference value: 0.65 %); type: functional
[13] = tested on: SMMC-7721; test: Induction of apoptosis in human SMMC-7721 cells assessed as early apoptotic cells at 15 uM incubated for 24 hrs by Annexin V-FITC and propidium iodide staining based flow cytometric analysis (reference value: 0.07 %); type: functional
[14] = tested on: SMMC-7721; test: Induction of apoptosis in human SMMC-7721 cells assessed as viable cells at 20 uM incubated for 24 hrs by Annexin V-FITC and propidium iodide staining based flow cytometric analysis (reference value: 99 %); type: functional; settings: read-out: Activity
[15] = tested on: SMMC-7721; test: Induction of apoptosis in human SMMC-7721 cells assessed as late apoptotic cells at 5 uM incubated for 24 hrs by Annexin V-FITC and propidium iodide staining based flow cytometric analysis (reference value: 0.14 %); type: functional
[16] = tested on: SMMC-7721; test: Induction of apoptosis in human SMMC-7721 cells assessed as viable cells at 15 uM incubated for 24 hrs in presence of 3-MA by Annexin V-FITC and propidium iodide staining based flow cytometric analysis (reference value: 99.2 %); type: functional; settings: read-out: Activity
[17] = tested on: SMMC-7721; test: Induction of apoptosis in human SMMC-7721 cells assessed as early apoptotic cells at 5 uM incubated for 24 hrs by Annexin V-FITC and propidium iodide staining based flow cytometric analysis (reference value: 0.28 %); type: functional
[18] = tested on: SMMC-7721; test: Induction of apoptosis in human SMMC-7721 cells assessed as late apoptotic cells at 15 uM incubated for 24 hrs in presence of Nec1 by Annexin V-FITC and propidium iodide staining based flow cytometric analysis (reference value: 0.09 %); type: functional
[19] = tested on: HepG2; test: Antiproliferative activity against human HepG2 cells assessed as inhibition of cell growth incubated for 48 hrs by CCK-8 reagent based spectrophotometric analysis; type: functional; settings: HepG2, 48 h
[20] = tested on: SMMC-7721; test: Induction of apoptosis in human SMMC-7721 cells assessed as late apoptotic cells at 15 uM incubated for 24 hrs in presence of zVAD by Annexin V-FITC and propidium iodide staining based flow cytometric analysis (reference value: 0.09 %); type: functional
[21] = tested on: SMMC-7721; test: Induction of apoptosis in human SMMC-7721 cells assessed as necrotic cells at 15 uM incubated for 24 hrs by Annexin V-FITC and propidium iodide staining based flow cytometric analysis (reference value: 0.65 %); type: functional
[22] = tested on: SMMC-7721; test: Induction of apoptosis in human SMMC-7721 cells assessed as viable cells at 15 uM incubated for 24 hrs in presence of Nec1 by Annexin V-FITC and propidium iodide staining based flow cytometric analysis (reference value: 99.2 %); type: functional; settings: read-out: Activity
[23] = tested on: SMMC-7721; test: Induction of apoptosis in human SMMC-7721 cells assessed as late apoptotic cells at 10 uM incubated for 24 hrs by Annexin V-FITC and propidium iodide staining based flow cytometric analysis (reference value: 0.14 %); type: functional
[24] = tested on: SMMC-7721; test: Induction of apoptosis in human SMMC-7721 cells assessed as early apoptotic cells at 15 uM incubated for 24 hrs in presence of 3-MA by Annexin V-FITC and propidium iodide staining based flow cytometric analysis (reference value: 0.07 %); type: functional
[25] = tested on: PC-3; test: Antiproliferative activity against human PC-3 cells assessed as inhibition of cell growth incubated for 48 hrs by CCK-8 reagent based spectrophotometric analysis; type: functional; settings: PC-3, 48 h
[26] = tested on: SMMC-7721; test: Antiproliferative activity against human SMMC-7721 cells assessed as inhibition of cell growth incubated for 48 hrs by CCK-8 reagent based spectrophotometric analysis; type: functional; settings: SMMC-7721, 48 h
[27] = tested on: SMMC-7721; test: Induction of apoptosis in human SMMC-7721 cells assessed as necrotic cells at 10 uM incubated for 24 hrs by Annexin V-FITC and propidium iodide staining based flow cytometric analysis (reference value: 0.61 %); type: functional
[28] = tested on: HeLa; test: Antiproliferative activity against human HeLa cells assessed as inhibition of cell growth incubated for 48 hrs by CCK-8 reagent based spectrophotometric analysis; type: functional
[29] = tested on: SMMC-7721; test: Induction of apoptosis in human SMMC-7721 cells assessed as necrotic cells at 15 uM incubated for 24 hrs in presence of 3-MA by Annexin V-FITC and propidium iodide staining based flow cytometric analysis (reference value: 0.65 %); type: functional
[30] = tested on: SMMC-7721; test: Induction of apoptosis in human SMMC-7721 cells assessed as early apoptotic cells at 20 uM incubated for 24 hrs by Annexin V-FITC and propidium iodide staining based flow cytometric analysis (reference value: 0.28 %); type: functional
[31] = tested on: SMMC-7721; test: Induction of apoptosis in human SMMC-7721 cells assessed as early apoptotic cells at 10 uM incubated for 24 hrs by Annexin V-FITC and propidium iodide staining based flow cytometric analysis (reference value: 0.28 %); type: functional

C=C(C)[C@@H]1CC[C@]2(C(=O)OC)CC[C@]3(C)[C@H](CC[C@@H]4[C@@]5(C)C[C@@H](Cc6cn([C@]7(CO)O[C@@H](n8ccc(O)nc8=O)[C@@H](F)[C@@H]7O)nn6)C(=O)C(C)(C)[C@@H]5CC[C@]43C)[C@@H]12
Activity [1]: 11.4% | Activity [2]: 17.5% | Activity [3]: 0.23% | viability at 15 µM [4]: 72.8% | Activity [5]: Non-Toxic | Activity [6]: Active | Activity [7]: 3.24% | Activity [8]: 19.8% | IC50 [9]: 10.6 µM | Activity [10]: 0.03% | Activity [11]: Active | Activity [12]: 9.3% | Activity [13]: 0.06% | viability at 20 µM [14]: 62.3% | Activity [15]: 0.16% | viability at 15 µM [16]: 86.2% | Activity [17]: 0.13% | Activity [18]: 9.13% | IC50 [19]: 23.7 µM | Activity [20]: 8.65% | Activity [21]: 15.7% | viability at 15 µM [22]: 87.4% | Activity [23]: 0.78% | Activity [24]: 0.05% | IC50 [25]: 22.9 µM | IC50 [26]: 7.73 µM | Activity [27]: 2.69% | IC50 [28]: 11.8 µM | Activity [29]: 11.2% | Activity [30]: 0.43% | Activity [31]: 0.35%

C=C(C)[C@@H]1CC[C@]2(C(=O)OC)CC[C@]3(C)[C@H](CC[C@@H]4[C@@]5(C)C[C@@H](Cc6cn([C@H]7C[C@H](n8cc(C)c(O)nc8=O)O[C@@H]7CO)nn6)C(=O)C(C)(C)[C@@H]5CC[C@]43C)[C@@H]12
Activity [1]: 15.2% | Activity [2]: 18.9% | Activity [3]: 0.19% | viability at 15 µM [4]: 68.2% | Activity [5]: Non-Toxic | Activity [6]: Active | Activity [7]: 5.17% | Activity [8]: 23% | IC50 [9]: 5.68 µM | Activity [10]: 0.04% | Activity [11]: Active | Activity [12]: 9.33% | Activity [13]: 0.04% | viability at 20 µM [14]: 58% | Activity [15]: 0.77% | viability at 15 µM [16]: 91.6% | Activity [17]: 0.24% | Activity [18]: 10.8% | IC50 [19]: 9.55 µM | Activity [20]: 2.77% | Activity [21]: 16.6% | viability at 15 µM [22]: 83.6% | Activity [23]: 6.31% | Activity [24]: 0.23% | IC50 [25]: 10.1 µM | IC50 [26]: 5.02 µM | Activity [27]: 1.48% | IC50 [28]: 6.07 µM | Activity [29]: 1.77% | Activity [30]: 0.089% | Activity [31]: 0.48%
